Source: patent US6974671B1, “Methods for indentifying compounds that modulate gluconeogenesis through the binding of CREB to the PGC-1 promoter” (Salk Institute for Biological Studies, priority 2001, dated 2005)

What was measured:
PGC-1 promoter = assay: Transient assay of HepG2 cells with PGC-1 luciferase reporter; assay type: cell-based, human
Text: (§1) Plasmids. Expression plasmids pZEO-ACREB^22 and pcDNA3-PGC-1^24 have been described previously. Liver specific A-CREB transgene was constructed by inserting A-CREB cDNA into a liver specific albumin promoter/enhancer plasmid^5. To construct luciferase expression plasmids −490PEPCKLuc and −355PEPCKLuc BamHI/BglII fragments of the PEPCK promoter region containing 490 or 355 bp of the mouse PEPCK 5′-flanking region, respectively, were cloned into the pGL3 basic luciferase reporter vector (Promega, St. Luis Obispo). PGC-1 reporter mPGCLuc was constructed by inserting a […] fragment of the mouse PGC-1 promoter containing 170 bp of the 5′-flanking region and 68 bp of Exon 1 into the pGL3 vector.
(§2) Cell culture and transient transfection assays. Human hepatoma HepG2 cells were transfected using the Lipofectamine 2000 reagent (GIBCO BRL) according to manufacturers instructions (500 ng of indicator plasmid/well). Where indicated, expression plasmids encoding A-CREB (pZeo-ACREB)^22 or PGC-1 (pcDNA3-PGC-1)^24 were cotransfected (50 ng or 800 ng plasmid/well, respectively). Cotransfections were performed with a constant DNA amount by adding the empty pcDNA3 vector (Invitrogen). Cells were treated with Forskolin (10 μM) and/or Dexamethasone (100 nM) or insulin (10 nM) for 14 h. […]

PEPCK promoter = assay: Transient assay of HepG2 cells with PEPCK luciferase reporter; assay type: cell-based, human; conditions: HepG2, PEPCK reporter plasmid, cAMP agonist
Text: as §1, §2

## insulin
PGC-1 promoter; HepG2, insulin 10 nM
  effect on PGC-1 reporter activity: blocked

## C=C[C@@]1(C)CC(=O)[C@]2(O)[C@@]3(C)[C@@H](O)CCC(C)(C)[C@@H]3[C@H](O)[C@H](OC(C)=O)[C@@]2(C)O1 [cAMP agonist, Forskolin]
PEPCK promoter
  stimulation of PEPCK promoter activity: 3–4 fold
PGC-1 promoter; HepG2, PGC-1 luciferase reporter (-170 to +68), forskolin 10 μM
  induction of PGC-1 promoter activity: 3–4 fold
